# Measured values as given in US6677277B1, “Substituted sulphonyl amino(thio)carbonyl compounds and their use as herbicides” (Bayer Aktiengesellschaft, priority 1996, dated 2004).
# Columns and labels:
# weeds [1] = experiment: Post-emergence test; type: in vivo; conditions: cf. Tables B-1 to B-4
# Experimental: (§1) Post-emergence Test Solvent: 5 parts by weight of acetone Emulsifier: 1 part by weight of alkylaryl polyglycol ether To produce a suitable preparation of active compound, 1 part by weight of active compound is mixed with the stated amount of solvent, the stated amount of emulsifier is added and the concentrate is diluted with water to the desired concentration. Test plants which have a height of 5-15 cm are sprayed with the preparation of the active compound in such a way as to apply the particular amounts of active compound desired per unit area. The concentration of the spray liquor is chosen so that the particular amounts of active compound desired are applied in 1000 l of water/ha. After three weeks, the degree of damage to the plants is rated in % damage in comparison to the development of the untreated control. The figures denote: [table]
# weeds [2] = experiment: Pre-emergence test; type: in vivo; conditions: cf. Tables A-1 to A-5
# Experimental: (§2) Pre-emergence Test Solvent: 5 parts by weight of acetone Emulsifier: 1 part by weight of alkylaryl polyglycol ether To produce a suitable preparation of active compound, 1 part by weight of active compound is mixed with the stated amount of solvent, the stated amount of emulsifier is added and the concentrate is diluted with water to the desired concentration. Seeds of the test plants are sown in normal soil. After about 24 hours, the soil is sprayed with the preparation of the active compound in such a way as to apply the particular amounts of active compound desired per unit area The concentration of the spray liquor is chosen so that the particular amounts of active compound desired are applied in 1000 l of water/ha. After three weeks, the degree of damage to the plants is rated in % damage in comparison to the development of the untreated control. The figures denote: [table]
# Lolium [3] = experiment: Pre-emergence test/greenhouse; type: in vivo; conditions: after three weeks
# Experimental: as §2
# Amaranthus [4] = experiment: Pre-emergence test/greenhouse; type: in vivo; conditions: after three weeks
# Experimental: as §2
# Matricaria [5] = experiment: Pre-emergence test/greenhouse; type: in vivo; conditions: after three weeks
# Experimental: as §2
# Solanum [6] = experiment: Pre-emergence test/greenhouse; type: in vivo; conditions: after three weeks
# Experimental: as §2
# Sorghum [7] = experiment: Pre-emergence test/greenhouse; type: in vivo; conditions: after three weeks
# Experimental: as §2
# Chenopodium = experiment: Pre-emergence test/greenhouse; type: in vivo; conditions: after three weeks
# Experimental: as §2
# Maize = experiment: Pre-emergence test/greenhouse; type: in vivo; conditions: after three weeks
# Experimental: as §2
# Alopecurus [8] = experiment: Pre-emergence test/greenhouse; type: in vivo; conditions: after three weeks
# Experimental: as §2
# Soya beans = experiment: Pre-emergence test/greenhouse; type: in vivo; conditions: 125 g ai./ha, after three weeks
# Experimental: as §2
# Xanthium = experiment: Post-emergence test/greenhouse; type: in vivo; conditions: post-emergence; for % damage, Xanthium: after three weeks
# Experimental: as §1
# Ipomoea = experiment: Post-emergence test/greenhouse; type: in vivo; conditions: 60 g ai./ha; for % damage, Ipomoea: after three weeks
# Experimental: as §1
# Stellaria = experiment: Post-emergence test/greenhouse; type: in vivo; conditions: 60 g ai./ha; for % damage, Stellaria: after three weeks
# Experimental: as §1
# Solanum [9] = experiment: Post-emergence test/greenhouse; type: in vivo; conditions: post-emergence; for % damage, Solanum: after three weeks
# Experimental: as §1
# Sorghum [10] = experiment: Post-emergence test/greenhouse; type: in vivo; conditions: post-emergence, 60 g ai./ha; for % damage, Sorghum: after three weeks
# Experimental: as §1
# Wheat = experiment: Post-emergence test/greenhouse; type: in vivo; conditions: for % damage, Wheat: after three weeks
# Experimental: as §1
# Amaranthus [11] = experiment: Post-emergence test/greenhouse; type: in vivo; conditions: post-emergence, after three weeks
# Experimental: as §1
# Matricaria [12] = experiment: Post-emergence test/greenhouse; type: in vivo; conditions: after three weeks
# Experimental: as §1
# [13] = log P n-octanol/water by the HPLC method; type: physicochemical; conditions: at pH 2, eluent acetonitrile containing 1% of H3PO4
# Lolium [14] = experiment: Post-emergence test/greenhouse; type: in vivo; conditions: 60 g ai./ha, after three weeks
# Experimental: as §1
# Alopecurus [15] = experiment: Post-emergence test/greenhouse; type: in vivo; conditions: 60 g ai./ha, after three weeks
# Experimental: as §1
# [16] = 60 g ai./ha, rated after three weeks vs untreated control
# [17] = rated after three weeks vs untreated control
structure (smiles),measurement,setting,value
CCSc1cccc(OC(F)(F)F)c1S(=O)(=O)NC(=O)n1nc(OC)n(C)c1=O [Example 40],activity against weeds,weeds [1],very strong activity
same,activity against weeds,weeds [2],very strong activity
same,"% damage, Lolium",Lolium [3]; 125 g ai./ha,95%
same,"% damage, Amaranthus",Amaranthus [4]; 125 g ai./ha,100%
same,"% damage, Matricaria",Matricaria [5]; 125 g ai./ha,100%
same,"% damage, Solanum",Solanum [6]; 125 g ai./ha,100%
same,"% damage, Sorghum",Sorghum [7]; 125 g ai./ha,100%
same,"% damage, Chenopodium",Chenopodium; 125 g ai./ha,100%
same,"% damage, Maize",Maize; 125 g ai./ha,5%
same,"% damage, Alopecurus",Alopecurus [8]; 125 g ai./ha,100%
same,"% damage, Soya beans",Soya beans,20%
same,"Xanthium, % damage",Xanthium; [16],100%
same,"Ipomoea, % damage",Ipomoea; [17],90%
same,"Stellaria, % damage",Stellaria; [17],95%
same,"Solanum, % damage",Solanum [9]; [16],95%
same,"Sorghum, % damage",Sorghum [10]; [17],80%
same,"Wheat, % damage",Wheat; [16],20%
CCOc1nn(C(=O)NS(=O)(=O)c2c(C)cccc2SCC)c(=O)n1C [Example 56],activity against weeds,weeds [1],very strong activity
same,"% damage, Amaranthus",Amaranthus [11]; 125 g ai./ha,100%
same,"% damage, Matricaria",Matricaria [12]; 125 g ai./ha,100%
same,"% damage, Xanthium",Xanthium; 125 g ai./ha,100%
same,"% damage, Solanum",Solanum [9]; 125 g ai./ha,100%
same,"% damage, Wheat",Wheat; 125 g ai./ha,10%
CCSc1cccc(C)c1S(=O)(=O)NC(=O)n1nc(CC)n(C)c1=O [Example 55],activity against weeds,weeds [1],very strong activity
same,"% damage, Amaranthus",Amaranthus [11]; 60 g ai./ha,95%
same,"% damage, Matricaria",Matricaria [12]; 60 g ai./ha,95%
same,"% damage, Xanthium",Xanthium; 60 g ai./ha,100%
same,"% damage, Solanum",Solanum [9]; 60 g ai./ha,90%
same,"% damage, Wheat",Wheat; 60 g ai./ha,20%
COc1nn(C(=O)NS(=O)(=O)c2c(SCC(F)F)cccc2C(F)(F)F)c(=O)n1C [Example 99],log P,[13],(log P = 2.59)
CCOc1nn(C(=O)NS(=O)(=O)c2c(OC(F)(F)F)cccc2SCC)c(=O)n1C [Example 6],activity against weeds,weeds [1],very strong activity
same,activity against weeds,weeds [2],very strong activity
same,"% damage, Lolium",Lolium [3]; 125 g ai./ha,100%
same,"% damage, Amaranthus",Amaranthus [4]; 125 g ai./ha,100%
same,"% damage, Matricaria",Matricaria [5]; 125 g ai./ha,100%
same,"% damage, Solanum",Solanum [6]; 125 g ai./ha,100%
same,"% damage, Sorghum",Sorghum [7]; 125 g ai./ha,80%
same,"% damage, Chenopodium",Chenopodium; 125 g ai./ha,100%
same,"% damage, Maize",Maize; 125 g ai./ha,0%
same,"% damage, Alopecurus",Alopecurus [8]; 125 g ai./ha,100%
same,"% damage, Lolium",Lolium [14],50%
same,"% damage, Xanthium",Xanthium; 60 g ai./ha,95%
same,"% damage, Ipomoea",Ipomoea,90%
same,"% damage, Stellaria",Stellaria,95%
same,"% damage, Solanum",Solanum [9]; 60 g ai./ha,95%
same,"% damage, Sorghum",Sorghum [10],70%
same,"% damage, Alopecurus",Alopecurus [15],60%
same,"% damage, Wheat",Wheat; 60 g ai./ha,5%
COc1cccc(SC)c1S(=O)(=O)NC(=O)n1nc(OC)n(C)c1=O [Example 21],activity against weeds,weeds [1],very strong activity
same,activity against weeds,weeds [2],very strong activity
same,"% damage, Lolium",Lolium [3]; 60 g ai./ha,100%
same,"% damage, Amaranthus",Amaranthus [4]; 60 g ai./ha,100%
same,"% damage, Matricaria",Matricaria [5]; 60 g ai./ha,90%
same,"% damage, Solanum",Solanum [6]; 60 g ai./ha,100%
same,"% damage, Sorghum",Sorghum [7]; 60 g ai./ha,100%
same,"% damage, Chenopodium",Chenopodium; 60 g ai./ha,100%
same,"% damage, Maize",Maize; 60 g ai./ha,20%
same,"% damage, Alopecurus",Alopecurus [8]; 60 g ai./ha,100%
same,"% damage, Lolium",Lolium [14],95%
same,"% damage, Ipomoea",Ipomoea,90%
same,"% damage, Stellaria",Stellaria,100%
same,"% damage, Solanum",Solanum [9]; 60 g ai./ha,100%
same,"% damage, Sorghum",Sorghum [10],100%
same,"% damage, Alopecurus",Alopecurus [15],100%
CCc1nn(C(=O)NS(=O)(=O)c2c(OC(F)(F)F)cccc2SC)c(=O)n1C [Example 34],activity against weeds,weeds [1],very strong activity
same,activity against weeds,weeds [2],very strong activity
same,"% damage, Lolium",Lolium [3]; 60 g ai./ha,80%
same,"% damage, Amaranthus",Amaranthus [4]; 60 g ai./ha,90%
same,"% damage, Solanum",Solanum [6]; 60 g ai./ha,95%
same,"% damage, Sorghum",Sorghum [7]; 60 g ai./ha,90%
same,"% damage, Chenopodium",Chenopodium; 60 g ai./ha,90%
same,"% damage, Maize",Maize; 60 g ai./ha,20%
same,"% damage, Alopecurus",Alopecurus [8]; 60 g ai./ha,100%
same,"% damage, Lolium",Lolium [14],70%
same,"% damage, Xanthium",Xanthium; 60 g ai./ha,95%
same,"% damage, Ipomoea",Ipomoea,80%
same,"% damage, Stellaria",Stellaria,80%
same,"% damage, Solanum",Solanum [9]; 60 g ai./ha,95%
same,"% damage, Sorghum",Sorghum [10],100%
same,"% damage, Alopecurus",Alopecurus [15],90%
same,"% damage, Wheat",Wheat; 60 g ai./ha,20%
CSc1nn(C(=O)NS(=O)(=O)c2c(C)cccc2SCC(F)F)c(=O)n1C [Example 101],log P,[13],(log P = 2.73)
